Measurements taken from patent publication US20230355626A1, “INHIBITORS OF HUMAN IMMUNODEFICIENCY VIRUS REPLICATION” (VIIV HEALTHCARE UK (NO.5) LIMITED, priority 2020, published 2023).

Experiments:
recombinant NL4-3 virus = experiment: HIV cell culture assay (antiviral activity, luciferase readout in infected MT-2 cells); type: cell-based; conditions: Human immunodeficiency virus 1, NL43, MT2
Procedure, shortened: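 MT-2 cells infected for 4-5 days with 293T-derived NL4-3 reporter virus (nef partly replaced by Renilla luciferase) in serial compound dilutions. Live-cell luciferase read-out. EC50 from median effect equation fit.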

[1] = Compound cytotoxicity, XTT-based colorimetric assay; type: cell-based; conditions: human; uninfected MT2 cells, day 4, XTT assay
Procedure, shortened: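 Uninfected MT2 cells were treated with compound under the same protocol as the antiviral assay. Viability was read on day 4 with an XTT colorimetric assay, from which CC50 values were derived.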

Cn1nc(NS(C)(=O)=O)c2c(Cl)ccc(-n3c([C@H](Cc4cc(F)cc(F)c4)NC(=O)Cn4nc(C(F)F)c5c4C(F)(F)[C@@H]4C[C@H]54)nc4nc(OCCNCC(F)(F)F)ccc4c3=O)c21 (atropisomer, axis not shown; (P)) [Example 25, N-((S)-1-((3P)-3-(4-chloro-1-methyl-3-(methylsulfonamido)-1H-indazol-7-yl)-4-oxo-7-(2-((2,2,2-trifluoroethyl)amino)ethoxy)-3,4-dihydropyrido[2,3-d]pyrimidin-2-yl)-2-(3,5-difluorophenyl)ethyl)-2-((3bS,4aR)-3-(difluoromethyl)-5,5-difluoro-3b,4,4a,5-tetrahydro-1H-cyclopropa[3,4]cyclopenta[1,2-c]pyrazol-1-yl)acetamide]
EC50 (recombinant NL4-3 virus): 0.057 nM | CC50 at 4 day [1]: > 100 nM

Cn1nc(NS(C)(=O)=O)c2c(Cl)ccc(-n3c([C@H](Cc4cc(F)cc(F)c4)NC(=O)Cn4nc(C(F)F)c5c4C(F)(F)[C@@H]4C[C@H]54)nc4nc(OCc5nccn5C(F)F)ccc4c3=O)c21 (atropisomer, axis not shown; (P)) [Example 28, N-((S)-1-((3P)-3-(4-chloro-1-methyl-3-(methylsulfonamido)-1H-indazol-7-yl)-7-((1-(difluoromethyl)-1H-imidazol-2-yl)methoxy)-4-oxo-3,4-dihydropyrido[2,3-d]pyrimidin-2-yl)-2-(3,5-difluorophenyl)ethyl)-2-((3bS,4aR)-3-(difluoromethyl)-5,5-difluoro-3b,4,4a,5-tetrahydro-1H-cyclopropa[3,4]cyclopenta[1,2-c]pyrazol-1-yl)acetamide]
EC50 (recombinant NL4-3 virus): 0.87 nM | CC50 at 4 day [1]: > 100 nM

Cn1nc(NS(C)(=O)=O)c2c(Cl)ccc(-n3c([C@H](Cc4cc(F)cc(F)c4)NC(=O)Cn4nc(C(F)F)c5c4C(F)(F)[C@@H]4C[C@H]54)nc4nc(OCC(F)(F)C(F)F)ccc4c3=O)c21 (atropisomer, axis not shown; (P)) [Example 27, N-((S)-1-((3P,3P)-3-(4-chloro-1-methyl-3-(methylsulfonamido)-1H-indazol-7-yl)-4-oxo-7-(2,2,3,3-tetrafluoropropoxy)-3,4-dihydropyrido[2,3-d]pyrimidin-2-yl)-2-(3,5-difluorophenyl)ethyl)-2-((3bS,4aR)-3-(difluoromethyl)-5,5-difluoro-3b,4,4a,5-tetrahydro-1H-cyclopropa[3,4]cyclopenta[1,2-c]pyrazol-1-yl)acetamide]
EC50 (recombinant NL4-3 virus): 0.022 nM | CC50 at 4 day [1]: > 100 nM

Cc1cc(C)nc(COc2ccc3c(=O)n(-c4ccc(Cl)c5c(NS(C)(=O)=O)nn(C)c45)c([C@H](Cc4cc(F)cc(F)c4)NC(=O)Cn4nc(C(F)F)c5c4C(F)(F)[C@@H]4C[C@H]54)nc3n2)n1 (atropisomer, axis not shown; (P)) [Example 6, N-((S)-1-((3P,3P)-3-(4-chloro-1-methyl-3-(methylsulfonamido)-1H-indazol-7-yl)-7-((4,6-dimethylpyrimidin-2-yl)methoxy)-4-oxo-3,4-dihydropyrido[2,3-d]pyrimidin-2-yl)-2-(3,5-difluorophenyl)ethyl)-2-((3bS,4aR)-3-(difluoromethyl)-5,5-difluoro-3b,4,4a,5-tetrahydro-1H-cyclopropa[3,4]cyclopenta[1,2-c]pyrazol-1-yl)acetamide]
EC50 (recombinant NL4-3 virus): 0.036 nM | CC50 at 4 day [1]: > 500 nM

Cn1nc(NS(C)(=O)=O)c2c(Cl)ccc(-n3c([C@H](Cc4cc(F)cc(F)c4)NC(=O)Cn4nc(C(F)F)c5c4C(F)(F)[C@@H]4C[C@H]54)nc4nc(OCc5ccn(CC(F)(F)F)n5)ccc4c3=O)c21 (atropisomer, axis not shown; (P)) [Example 24, N-((S)-1-((3P)-3-(4-chloro-1-methyl-3-(methylsulfonamido)-1H-indazol-7-yl)-4-oxo-7-((1-(2,2,2-trifluoroethyl)-1H-pyrazol-3-yl)methoxy)-3,4-dihydropyrido[2,3-d]pyrimidin-2-yl)-2-(3,5-difluorophenyl)ethyl)-2-((3bS,4aR)-3-(difluoromethyl)-5,5-difluoro-3b,4,4a,5-tetrahydro-1H-cyclopropa[3,4]cyclopenta[1,2-c]pyrazol-1-yl)acetamide]
EC50 (recombinant NL4-3 virus): 0.057 nM | CC50 at 4 day [1]: > 100 nM

Cn1nc(NS(C)(=O)=O)c2c(Cl)ccc(-n3c([C@H](Cc4cc(F)cc(F)c4)NC(=O)Cn4nc(C(F)F)c5c4C(F)(F)[C@@H]4C[C@H]54)nc4nc(OCCOC(F)F)ccc4c3=O)c21 (atropisomer, axis not shown; (P)) [Example 29, N-((S)-1-((3P)-3-(4-chloro-1-methyl-3-(methylsulfonamido)-1H-indazol-7-yl)-7-(2-(difluoromethoxy)ethoxy)-4-oxo-3,4-dihydropyrido[2,3-d]pyrimidin-2-yl)-2-(3,5-difluorophenyl)ethyl)-2-((3bS,4aR)-3-(difluoromethyl)-5,5-difluoro-3b,4,4a,5-tetrahydro-1H-cyclopropa[3,4]cyclopenta[1,2-c]pyrazol-1-yl)acetamide]
EC50 (recombinant NL4-3 virus): 0.033 nM | CC50 at 4 day [1]: > 100 nM

CN(CCCOc1ccc2c(=O)n(-c3ccc(Cl)c4c(NS(C)(=O)=O)nn(C)c34)c([C@H](Cc3cc(F)cc(F)c3)NC(=O)Cn3nc(C(F)F)c4c3C(F)(F)[C@@H]3C[C@H]43)nc2n1)CC(F)(F)F (atropisomer, axis not shown; (P)) [Example 11, N-((S)-1-((3P)-3-(4-chloro-1-methyl-3-(methylsulfonamido)-1H-indazol-7-yl)-7-(3-(methyl(2,2,2-trifluoroethyl)amino)propoxy)-4-oxo-3,4-dihydropyrido[2,3-d]pyrimidin-2-yl)-2-(3,5-difluorophenyl)ethyl)-2-((3bS,4aR)-3-(difluoromethyl)-5,5-difluoro-3b,4,4a,5-tetrahydro-1H-cyclopropa[3,4]cyclopenta[1,2-c]pyrazol-1-yl)acetamide]
EC50 (recombinant NL4-3 virus): 0.027 nM | CC50 at 4 day [1]: > 100 nM

Cn1nc(NS(C)(=O)=O)c2c(Cl)ccc(-n3c([C@H](Cc4cc(F)cc(F)c4)NC(=O)Cn4nc(C(F)F)c5c4C(F)(F)[C@@H]4C[C@H]54)nc4nc(OCCOCC(F)(F)C(F)(F)F)ccc4c3=O)c21 (atropisomer, axis not shown; (P)) [Example 20, N-((S)-1-((3P)-3-(4-chloro-1-methyl-3-(methylsulfonamido)-1H-indazol-7-yl)-4-oxo-7-(2-(2,2,3,3,3-pentafluoropropoxy)ethoxy)-3,4-dihydropyrido[2,3-d]pyrimidin-2-yl)-2-(3,5-difluorophenyl)ethyl)-2-((3bS,4aR)-3-(difluoromethyl)-5,5-difluoro-3b,4,4a,5-tetrahydro-1H-cyclopropa[3,4]cyclopenta[1,2-c]pyrazol-1-yl)acetamide]
EC50 (recombinant NL4-3 virus): 0.045 nM | CC50 at 4 day [1]: > 100 nM

Cn1nc(NS(C)(=O)=O)c2c(Cl)ccc(-n3c([C@H](Cc4cc(F)cc(F)c4)NC(=O)Cn4nc(C(F)F)c5c4C(F)(F)[C@@H]4C[C@H]54)nc4nc(OCC(F)(F)C(F)(F)F)ccc4c3=O)c21 (atropisomer, axis not shown; (P)) [Example 18, N-(1-((3P,3P)-3-(4-chloro-1-methyl-3-(methylsulfonamido)-1H-indazol-7-yl)-4-oxo-7-(2,2,3,3,3-pentafluoropropoxy)-3,4-dihydropyrido[2,3-d]pyrimidin-2-yl)-2-(3,5-difluorophenyl)ethyl)-2-((3bS,4aR)-3-(difluoromethyl)-5,5-difluoro-3b,4,4a,5-tetrahydro-1H-cyclopropa[3,4]cyclopenta[1,2-c]pyrazol-1-yl)acetamide]
EC50 (recombinant NL4-3 virus): 0.031 nM | CC50 at 4 day [1]: > 100 nM
